Laboratory results taken from the NIST ThermoML archive (doi:10.1016/j.jct.2016.07.035).
± gives the expanded uncertainty stated by the source.

Conditions: Crystal; visual observation

## COC(=O)C1=C(C)NC(C)=C(C(=O)OC)C1c1ccccc1[N+](=O)[O-]
  Normal melting temperature: 173.50 ± 2.1 °C
